Some test systems named below: SNB-19 CNS; DU-145 prostate; SF-539 CNS; RPMI-8226 leukemia; HCT-116 colon; PC-3 prostate; 786-0 renal; HCT-15 colon; CCRF-CEM leukemia; SNB-75 CNS.
Common to all, as to assay: DTP human tumour cell line panel, 48 h

Among the data in PubChem BioAssay (NCI) are GI50 and TGI values, retold here.

Each structure is given as a SMILES string. Values joined by “and” are separate entries in the source; they are usually repeats but may differ in a detail not shown here. Equal values may be shown once.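 48-hour exposure; five concentrations; linearly interpolated endpoints. Abbreviation: GI50, concentration required for 50% inhibition of growth. TGI: total growth inhibition.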 Bounds are passed on as bounds.

Regarding `COc1cccc(Nc2nc3ccccc3c3occc23)c1`, the GI50 is 12.9 µM with SNB-19 CNS; 10.9 µM in the assay with DU-145 prostate; 17.3 µM in the assay on SF-539 CNS; 15.9 µM with RPMI-8226 leukemia; 15.3 µM in the assay on HCT-116 colon; 13.8 µM in the assay with PC-3 prostate. The GI50 in the assay with 786-0 renal is 10.7 µM; in the assay on HCT-15 colon, 13.2 µM. The TGI was 25.8 µM in the assay on SNB-19 CNS; 22.9 µM in the assay with DU-145 prostate; 35.1 µM in the assay with SF-539 CNS; > 100 µM with RPMI-8226 leukemia; 34.4 µM with HCT-116 colon; 34.3 µM with PC-3 prostate. In addition, the TGI with 786-0 renal is 23.7 µM; with HCT-15 colon, > 100 µM.

Take `CN(/N=C\c1ccnc2ccccc12)c1ccc([N+](=O)[O-])cc1`: the concentration for total growth inhibition (TGI) with SNB-19 CNS was > 100 µM; with CCRF-CEM leukemia, 82.5 µM; with SF-539 CNS, > 100 µM; in the assay on RPMI-8226 leukemia, 65.4 µM; in the assay with HCT-116 colon, > 100 µM; with SNB-75 CNS, > 100 µM. The TGI in the assay on 786-0 renal and in the assay with HCT-15 colon was > 100 µM each time.

`CNS(=O)(=O)NNS(=O)(=O)c1ccc(OC)cc1`: the concentration for total growth inhibition (TGI) with SNB-19 CNS, in the assay with CCRF-CEM leukemia, in the assay with SF-539 CNS, with RPMI-8226 leukemia, in the assay on HCT-116 colon and in the assay on SNB-75 CNS was > 100 µM throughout. Besides, the TGI with 786-0 renal and in the assay with HCT-15 colon was > 100 µM in each case.

Regarding `CCNC(=O)OCc1c(COC(=O)NCC)c(-c2ccc(Cl)c(Cl)c2)n2c1CCC2`, the concentration for total growth inhibition (TGI) with SNB-19 CNS came to 68.1 µM; in the assay on CCRF-CEM leukemia, 21.4 µM; in the assay on SF-539 CNS it was 25.6 µM; in the assay on RPMI-8226 leukemia it was 27.9 µM; with HCT-116 colon, 33.6 µM; with SNB-75 CNS, 27.7 µM. The TGI in the assay on 786-0 renal is 33.5 µM; in the assay on HCT-15 colon it was 36.9 µM.

As for `O=c1c(Cl)c(Cl)cnn1CCCl`, the TGI was 16.4 µM in the assay with SNB-19 CNS; 4.84 µM in the assay with CCRF-CEM leukemia; 34 µM with DU-145 prostate; 29.5 µM in the assay on SF-539 CNS; > 47.1 µM in the assay with RPMI-8226 leukemia; 17 µM in the assay on HCT-116 colon. Besides, the concentration for total growth inhibition (TGI) came out at 24.1 µM with SNB-75 CNS, 25.3 µM in the assay on 786-0 renal and 6.79 µM in the assay with HCT-15 colon.

Take `COc1ccc([C@@]23Oc4cc(OC)cc(OC)c4[C@]2(O)[C@H](O)[C@H](C(N)=O)[C@H]3c2ccccc2)cc1`: the TGI was 0.0999 µM with SNB-19 CNS; > 100 µM with CCRF-CEM leukemia; 0.105 µM and < 0.0219 µM in the assay with DU-145 prostate; 0.0193 µM in the assay on SF-539 CNS; 0.488 µM in the assay on HCT-116 colon; 0.119 µM in the assay with SNB-75 CNS. In addition, the TGI in the assay with 786-0 renal is 0.291 µM; in the assay on HCT-15 colon, 0.33 µM and 0.229 µM. In addition, the concentration for 50% growth inhibition (GI50) in the assay with SNB-75 CNS is < 0.01 µM; in the assay with 786-0 renal it was 0.018 µM; with HCT-15 colon, 0.0177 µM.

With `O=C(/C=C\c1cccc2ccccc12)c1ccc(Cl)cc1Cl`, the TGI in the assay with SNB-19 CNS is 72.9 µM; with CCRF-CEM leukemia, 42.1 µM; with SF-539 CNS, 53.2 µM; in the assay on RPMI-8226 leukemia, 46.6 µM; in the assay with HCT-116 colon, 33.6 µM; in the assay on SNB-75 CNS, > 100 µM. Also, the TGI in the assay on 786-0 renal was found to be 33.1 µM; in the assay on HCT-15 colon it was 26.6 µM.

`CC(=O)[CH-]C(=O)c1ccccc1.CC(=O)[CH-]C(=O)c1ccccc1.CC(=O)[CH-]C(=O)c1ccccc1.[Nd+3].[OH3+]`: the GI50 with SNB-19 CNS was > 100 µM; in the assay on CCRF-CEM leukemia, 9.7 µM; in the assay on SF-539 CNS it was 52.9 µM; in the assay with RPMI-8226 leukemia, 46.6 µM; in the assay with HCT-116 colon it was 46.7 µM; with SNB-75 CNS, 6.66 µM. Also, the GI50 with 786-0 renal was 37 µM; with HCT-15 colon it was 42 µM. The TGI in the assay with SNB-19 CNS is > 100 µM; in the assay with CCRF-CEM leukemia it was > 100 µM; with SF-539 CNS, > 100 µM; with RPMI-8226 leukemia it was > 100 µM; with HCT-116 colon, > 100 µM; in the assay with SNB-75 CNS, 43.4 µM. The TGI in the assay with 786-0 renal and in the assay on HCT-15 colon was > 100 µM each time.

`CC(=O)[C@H]1CCC2[C@@H]3CC=C4C[C@@H]([O-])CC[C@]4(C)C3CC[C@@]21C.CC(=O)[C@H]1CCC2[C@@H]3CC=C4C[C@@H]([O-])CC[C@]4(C)C3CC[C@@]21C.CC(=O)[CH-]C(=O)c1ccccc1.CC(=O)[CH-]C(=O)c1ccccc1.Cl.[Ti+4]` (some centres undefined): the GI50 with CCRF-CEM leukemia is 10.6 µM; with SF-539 CNS it was 9.44 µM; in the assay with RPMI-8226 leukemia, 15 µM; in the assay on HCT-116 colon, 25.7 µM; with SNB-75 CNS, 24.4 µM; with 786-0 renal it was 6.03 µM. The GI50 in the assay on HCT-15 colon was 17.6 µM. The TGI is > 100 µM in the assay with CCRF-CEM leukemia; > 100 µM in the assay with RPMI-8226 leukemia; > 100 µM in the assay on HCT-116 colon; 66.2 µM in the assay on SNB-75 CNS; 17.9 µM with 786-0 renal; > 100 µM in the assay on HCT-15 colon.

Turning to `COC(=O)C1C(=O)O[C@@H](c2cc(OC)c(OC)cc2OC)C1C(=O)OC` (mixture of isomers), the TGI in the assay on SNB-19 CNS, with CCRF-CEM leukemia, in the assay on SF-539 CNS, with RPMI-8226 leukemia, with HCT-116 colon and in the assay on SNB-75 CNS was > 100 µM each time. Also, the TGI in the assay with 786-0 renal and in the assay on HCT-15 colon was > 100 µM in each case.

Consider `CC1=CC(C)(C)NN1C1=NS(=O)(=O)c2ccccc2N1C`, for which the TGI with SNB-19 CNS, in the assay on CCRF-CEM leukemia, in the assay with DU-145 prostate, in the assay with SF-539 CNS, in the assay on HCT-116 colon and with PC-3 prostate was > 100 µM each time. The TGI in the assay with 786-0 renal and in the assay with HCT-15 colon was > 100 µM in each case.

Take `Clc1cccc(C2N3CCCCC3[C@@H]3c4[nH]c5ccccc5c4CCN23)c1` (some centres undefined): the TGI was > 100 µM in the assay on SNB-19 CNS; 56.6 µM with CCRF-CEM leukemia; 57.7 µM with SF-539 CNS; 81.8 µM with RPMI-8226 leukemia; 30.8 µM with HCT-116 colon; 85.4 µM in the assay on SNB-75 CNS. Moreover, the TGI in the assay with 786-0 renal and in the assay on HCT-15 colon was > 100 µM in each case.

For the compound `NC1=NN(c2ccccc2)C(=O)C1C(=O)C(=O)Nc1ccc(Cl)c(Cl)c1` (centres undefined), the TGI with SNB-19 CNS is > 100 µM; in the assay with CCRF-CEM leukemia, > 100 µM; with SF-539 CNS, > 100 µM; with RPMI-8226 leukemia, > 100 µM; with HCT-116 colon, > 100 µM; in the assay with SNB-75 CNS, 85 µM. Moreover, the TGI with 786-0 renal and in the assay on HCT-15 colon was > 100 µM each time.
